According to patent publication US12545637B2, “Extrahepatic targeted cationic lipid compound with high efficiency and low toxicity and its composition” (BEIJING YOUCARE KECHUANG PHARMACEUTICAL TECHNOLOGY CO., LTD., priority 2023, dated 2026):
“And” between values parts separate entries of the source, which are not always exact repeats. Equal entries are not always repeated.

Experiments:
[1] = Detection of encapsulation efficiency, drug loading concentration and total RNA concentration (RiboGreen); assay type: physicochemical
Text: Encapsulation efficiency is a key quality attribute of liposomes, which refers to the percentage of drug content encapsulated in the lipid bimolecular layer accounting for the total drug dose and can reflect the degree of drug encapsulation in liposomes. The Chinese Pharmacopoeia stipulates that the encapsulation efficiency should generally not be less than 80%.
The drug loading amount is the ratio of the amount of drug in the liposome to the total amount of drug and carrier in the liposome. The drug loading amount directly affects the clinical application dose of the drug. […] The drug loading concentration is proportional to the drug loading amount, and the relative proportion of the drug loading concentrations can represent the relative proportion of the drug loading amounts. The relative ratio of the total RNA concentrations may represent the relative ratio of the amounts of mRNA carried by the LNP formulations.
1×TE buffer, 0.1% Triton X-100 buffer, RiboGreen reagent (1: 200) and mRNA standard stock solution were prepared.
An appropriate amount of the sample was added to an appropriate amount of 1×TE buffer, and the mixture was diluted to obtain a solution containing approximately […] sample per 1 mL. Then the sample was added to a 96-well plate, and 50 μL of the diluted test sample or the mRNA standard stock solution was added to each well, then 1×TE buffer and 0.1% Triton X-100 buffer were added. The sample was incubated at 37° C. for 10 minutes, and 100 μL RiboGreen reagent (1:200) was added to each well of the test sample in the 96-well plate. The sample was centrifugated, and the data were read using a microplate reader, and processed.

[2] = Particle size and polydispersity index (PDI) of lipid nanoparticles by dynamic light scattering; assay type: physicochemical
Method: The particle size and polydispersity index (PDI) were determined by dynamic light scattering using Malvern laser particle size analyzer.
10 μL of the liposome solution was weighed, diluted to 1 mL with RNase-free deionized water, and added to the sample pool. Each sample was measured in triplicate. The measurement conditions were: […] scattering angle, and 25° C.

293T cells = experiment: Cell survival rate assay (CCK-8); assay type: cell-based
Method: Cell recovery and passage: 293T cells were recovered, cultured in a culture dish, and passaged to the required number of cells.
Seeding plate: The cells in the culture dish were digested and counted. Cells were spread in a 96-well plate at 10,000 cells per well and in a 12-well plate at 150,000 cells per well. Cells were cultured overnight until the cells adhered to the wall.
An LNP formulation containing 1.5 μg of Fluc-mRNA (prepared according to example 4, the carrier components of the LNP formulation were cationic lipid, neutral lipid, structured lipid and polymer-conjugated lipid at a molar ratio of 49:10:39.5:1.5, wherein the cationic lipid was listed in Table 1) and the formulation of Lipofectamine 3000 were added to the cell culture medium of a 96-well plate, and further cultivated for 24 hours. 10 μL of CCK-8 solution was then added to each well, and the culture plate was incubated in an incubator for 1 hour. The absorbance at 450 nm was measured by a microplate reader.

[3] = LNP formulation prepared from the cationic lipid

Question: Which Drug loading concentration [1, 3] does the source give for CCCCCCCCC(CCCCCCCC)OC(=O)CCCCCN(CCO)CCN(CCO)CCCCCC(=O)OC(CCCCCCCC)CCCCCCCC [YK-401, di(heptadecan-9-yl) 6,6′-(ethane-1,2-diyl-bis((2-hydroxyethyl)azanediyl))dihexanoate] here?
Answer: 37.16 µg/mL

Question: What about the Encapsulation efficiency [1, 3] of the same molecule?
Answer: 83.6%

Question: What about the “Total RNA concentration” value [1, 3] of the same molecule?
Answer: 41.71 µg/mL

Question: What about the “encapsulation efficiency higher than ALC-0315” value ([1]; difference vs ALC-0315) of the same molecule?
Answer: 20.3%

Question: And the “encapsulation efficiency higher than HIMA” value ([1]; difference vs HIMA (HHMA))?
Answer: 23.4%

Question: What about the “encapsulation efficiency higher than SM-102” value ([1]; difference vs SM-102) of the same molecule?
Answer: 20.7%

Question: And the “encapsulation efficiency higher than YK-009” value ([1]; difference vs YK-009)?
Answer: 20.2%

Question: What about the “encapsulation efficiency higher than compound 21” value ([1]; difference vs compound 21) of the same molecule?
Answer: 25.6%

Question: What about the “encapsulation efficiency higher than compound 23” value ([1]; difference vs compound 23) of the same molecule?
Answer: 27.4%

Question: And the “drug loading concentration, times that of ALC-0315” value ([1]; ratio vs ALC-0315)?
Answer: 1.38

Question: And the “total RNA concentration, times that of ALC-0315” value ([1]; ratio vs ALC-0315)?
Answer: 1.10

Question: What about the “drug loading concentration, times that of HIMA” value ([1]; ratio vs HIMA (HHMA)) of the same molecule?
Answer: 1.14

Question: What about the “total RNA concentration, times that of HIMA” value ([1]; ratio vs HIMA (HHMA)) of the same molecule?
Answer: 1.14

Question: And the “drug loading concentration, times that of SM-102” value ([1]; ratio vs SM-102)?
Answer: 1.40

Question: And the “total RNA concentration, times that of SM-102” value ([1]; ratio vs SM-102)?
Answer: 1.16

Question: What about the “drug loading concentration, times that of YK-009” value ([1]; ratio vs YK-009) of the same molecule?
Answer: 1.35

Question: What about the “total RNA concentration, times that of YK-009” value ([1]; ratio vs YK-009) of the same molecule?
Answer: 1.08

Question: What about the “drug loading concentration, times that of compound 21” value ([1]; ratio vs compound 21) of the same molecule?
Answer: 1.69

Question: And the “total RNA concentration, times that of compound 21” value ([1]; ratio vs compound 21)?
Answer: 1.44

Question: And the “drug loading concentration, times that of compound 23” value ([1]; ratio vs compound 23)?
Answer: 1.86

Question: What about the “total RNA concentration, times that of compound 23” value ([1]; ratio vs compound 23) of the same molecule?
Answer: 1.34

Question: What about the PDI ([2]; LNP formulation of the cationic lipid, 25° C.) of the same molecule?
Answer: 17.7%

Question: And the Particle size ([2]; LNP formulation of the cationic lipid/DSPC/cholesterol/DMG-PEG2000 49:10:39.5:1.5, 25° C.)?
Answer: 152 nm

Question: What about the Cell survival rate (293T cells; LNP with 1.5 μg Fluc-mRNA, 24 hours, CCK-8) of the same molecule?
Answer: 75.21%

Question: What about the “cell survival rate higher than ALC-0315” value (293T cells; difference vs ALC-0315) of the same molecule?
Answer: 28.00%

Question: And the “cell survival rate higher than HIMA” value (293T cells; difference vs HIMA (HHMA))?
Answer: 10.94%

Question: What about the “cell survival rate higher than Lipofectamine 3000” value (293T cells; difference vs Lipofectamine 3000) of the same molecule?
Answer: 53.55%

Question: And the “cell survival rate higher than SM-102” value (293T cells; difference vs SM-102)?
Answer: 4.31% and 7.31%

Question: What about the “cell survival rate higher than YK-404” value (293T cells; difference vs YK-404) of the same molecule?
Answer: 33.09%

Question: And the “cell survival rate higher than YK-405” value (293T cells; difference vs YK-405)?
Answer: 33.35%

Question: What about the “cell survival rate higher than YK-406” value (293T cells; difference vs YK-406) of the same molecule?
Answer: 50.25%

Question: And the “cell survival rate higher than YK-408” value (293T cells; difference vs YK-408)?
Answer: 32.90%

Question: What about the “cell survival rate higher than YK-409” value (293T cells; difference vs YK-409) of the same molecule?
Answer: 29.10%

Question: What about the “cell survival rate higher than YK-410” value (293T cells; difference vs YK-410) of the same molecule?
Answer: 30.29%

Question: What about the “cell survival rate higher than YK-411” value (293T cells; difference vs YK-411) of the same molecule?
Answer: 58.88%

Question: And the “cell survival rate higher than YK-412” value (293T cells; difference vs YK-412)?
Answer: 21.07%

Question: What about the “cell survival rate higher than YK-413” value (293T cells; difference vs YK-413) of the same molecule?
Answer: 28.01%

Question: And the “cell survival rate higher than YK-414” value (293T cells; difference vs YK-414)?
Answer: 46.46%

Question: And the “cell survival rate higher than YK-415” value (293T cells; difference vs YK-415)?
Answer: 14.05%

Question: What about the “cell survival rate higher than YK-416” value (293T cells; difference vs YK-416) of the same molecule?
Answer: 34.24%

Question: What about the “cell survival rate higher than YK-417” value (293T cells; difference vs YK-417) of the same molecule?
Answer: 53.87%

Question: And the “cell survival rate higher than YK-418” value (293T cells; difference vs YK-418)?
Answer: 54.16%

Question: What about the “cell survival rate higher than YK-419” value (293T cells; difference vs YK-419) of the same molecule?
Answer: 36.29%

Question: And the “cell survival rate higher than YK-420” value (293T cells; difference vs YK-420)?
Answer: 39.62%

Question: And the “cell survival rate higher than YK-421” value (293T cells; difference vs YK-421)?
Answer: 39.50%

Question: And the “cell survival rate higher than YK-424” value (293T cells; difference vs YK-424)?
Answer: 47.28%

Question: What about the “cell survival rate higher than compound 21” value (293T cells; difference vs compound 21) of the same molecule?
Answer: 7.37%

Question: What about the “cell survival rate higher than compound 23” value (293T cells; difference vs compound 23) of the same molecule?
Answer: 6.10%

Question: And the “cytotoxicity reduced compared with YK-411” value (293T cells; rounded summary statement vs YK-411)?
Answer: 50%
